# Results published in ChEMBL document CHEMBL3352542, “Synthesis, biological evaluation and molecular modeling study of 2-(1,3,4-thiadiazolyl-thio and 4-methyl-thiazolyl-thio)-quinazolin-4-ones as a new class of DHFR inhibitors” (Bioorg Med Chem Lett, 2014).
# Active and inactive are the calls of the source. No cut-off for these calls is given here.
# Tests used:
# MDA-MB-231 = assay: Growth inhibition of human MDA-MB-231 cells at 10 uM after 48 hrs; type: functional; conditions: MDA-MB-231, 48 h, read-out: GI
# [1] = Growth inhibition of human UACC62 cells at 10 uM after 48 hrs; type: functional; conditions: UACC-62, 48 h, read-out: GI
# [2] = Growth inhibition of human UO31 cells at 10 uM after 48 hrs; type: functional; conditions: UO-31, 48 h, read-out: GI
# HL-60(TB) = assay: Growth inhibition of human HL-60(TB) cells at 10 uM after 48 hrs; type: functional; conditions: HL-60, 48 h, read-out: GI
# Escherichia coli [3] = assay: Antimicrobial activity against Escherichia coli assessed as inhibition zone at 200 ug/disk after 24 hrs by disc-diffusion method; type: functional; conditions: read-out: IZ
# [4] = Growth inhibition of human RXF393 cells at 10 uM after 48 hrs; type: functional; conditions: RXF 393, 48 h, read-out: GI
# Bacillus subtilis [5] = assay: Antimicrobial activity against Bacillus subtilis assessed as inhibition zone at 200 ug/disk after 24 hrs by disc-diffusion method; type: functional; conditions: read-out: IZ
# [6] = Growth inhibition of human HOP92 cells at 10 uM after 48 hrs; type: functional; conditions: HOP-92, 48 h, read-out: GI
# A498 = assay: Growth inhibition of human A498 cells at 10 uM after 48 hrs; type: functional; conditions: A498, 48 h, read-out: GI
# SR = assay: Growth inhibition of human SR cells at 10 uM after 48 hrs; type: functional; conditions: read-out: GI
# Pseudomonas aeruginosa = assay: Antimicrobial activity against Pseudomonas aeruginosa assessed as inhibition zone at 200 ug/disk after 24 hrs by disc-diffusion method; type: functional; conditions: read-out: IZ
# Candida albicans = assay: Antimicrobial activity against Candida albicans assessed as inhibition zone at 200 ug/disk after 24 hrs by disc-diffusion method; type: functional; conditions: read-out: IZ
# CAKI-1 = assay: Growth inhibition of human CAKI-1 cells at 10 uM after 48 hrs; type: functional; conditions: CAKI-1, 48 h, read-out: GI
# Staphylococcus aureus [7] = assay: Antimicrobial activity against Staphylococcus aureus assessed as inhibition zone at 200 ug/disk after 24 hrs by disc-diffusion method; type: functional; conditions: read-out: IZ
# [8] = Growth inhibition of human PC3 cells at 10 uM after 48 hrs; type: functional; conditions: PC-3, 48 h, read-out: GI
# [9] = Growth inhibition of human HCT116 cells at 10 uM after 48 hrs; type: functional; conditions: HCT-116, 48 h, read-out: GI
# Dihydrofolate reductase = target: T1, Dihydrofolate reductase (Bos taurus, UniProt P00376); assay: Inhibition of bovine liver DHFR
# T1 sequence (P00376 whole entry): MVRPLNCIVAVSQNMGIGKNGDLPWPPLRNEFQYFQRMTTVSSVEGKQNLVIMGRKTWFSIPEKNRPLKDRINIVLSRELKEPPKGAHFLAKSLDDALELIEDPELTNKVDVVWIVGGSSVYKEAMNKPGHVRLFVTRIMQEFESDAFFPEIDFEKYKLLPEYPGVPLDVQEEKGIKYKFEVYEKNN
# [10] = Growth inhibition of human SF539 cells at 10 uM after 48 hrs; type: functional; conditions: SF-539, 48 h, read-out: GI
# MDA-MB-435 = assay: Growth inhibition of human MDA-MB-435 cells at 10 uM after 48 hrs; type: functional; conditions: MDA-MB-435, 48 h, read-out: GI
# HOP-62 = assay: Growth inhibition of human HOP62 cells at 10 uM after 48 hrs; type: functional; conditions: HOP-62, 48 h, read-out: GI
# 786-0 = assay: Growth inhibition of human 786-0 cells at 10 uM after 48 hrs; type: functional; conditions: 786-0, 48 h, read-out: GI
# Staphylococcus aureus [11] = assay: Antimicrobial activity against Staphylococcus aureus assessed as inhibition of visible growth after 24 hrs by disc-diffusion method; type: functional, organism-based
# [12] = Growth inhibition of human HCT15 cells at 10 uM after 48 hrs; type: functional; conditions: HCT-15, 48 h, read-out: GI
# [13] = Growth inhibition of human UACC257 cells at 10 uM after 48 hrs; type: functional; conditions: UACC-257, 48 h, read-out: GI
# SK-MEL-5 = assay: Growth inhibition of human SK-MEL-5 cells at 10 uM after 48 hrs; type: functional; conditions: SK-MEL-5, 48 h, read-out: GI
# Bacillus subtilis [14] = assay: Antimicrobial activity against Bacillus subtilis assessed as inhibition of visible growth after 24 hrs by disc-diffusion method; type: functional, organism-based
# [15] = Growth inhibition of human SF295 cells at 10 uM after 48 hrs; type: functional; conditions: SF-295, 48 h, read-out: GI
# MCF7 = assay: Growth inhibition of human MCF7 cells at 10 uM after 48 hrs; type: functional; conditions: MCF7, 48 h, read-out: GI
# Escherichia coli [16] = assay: Antimicrobial activity against Escherichia coli assessed as inhibition of visible growth after 24 hrs by disc-diffusion method; type: functional, organism-based
# [17] = Growth inhibition of human Hs 578T cells at 10 uM after 48 hrs; type: functional; conditions: read-out: GI
# T47D = assay: Growth inhibition of human T47D cells at 10 uM after 48 hrs; type: functional; conditions: read-out: GI
# A549 = assay: Growth inhibition of human A549 cells at 10 uM after 48 hrs; type: functional; conditions: A549, 48 h, read-out: GI
# [18] = Growth inhibition of human RPMI8226 cells at 10 uM after 48 hrs; type: functional; conditions: RPMI-8226, 48 h, read-out: GI
# U-251 = assay: Growth inhibition of human U251 cells at 10 uM after 48 hrs; type: functional; conditions: U-251, 48 h, read-out: GI
structure (smiles),measurement,setting,value
Cc1ccc(-n2c(Sc3nnc(N)s3)nc3ccc(C)cc3c2=O)cc1,inhibition of growth at 10 µM,MDA-MB-231,21.9%
same,inhibition of growth at 10 µM,[1],14.8%
same,inhibition of growth at 10 µM,[2],23.2%
same,inhibition of growth at 10 µM,HL-60(TB),28.2%
same,zone of inhibition at 200 µg/disc,Escherichia coli [3],8 mm
same,inhibition of growth at 10 µM,[4],10.5%
same,zone of inhibition at 200 µg/disc,Bacillus subtilis [5],8 mm
same,inhibition of growth at 10 µM,[6],21.1%
same,inhibition of growth at 10 µM,A498,14.2%
same,inhibition of growth at 10 µM,SR,32.7%
same,zone of inhibition at 200 µg/disc,Pseudomonas aeruginosa,8 mm
same,zone of inhibition at 200 µg/disc,Candida albicans,8 mm
same,inhibition of growth at 10 µM,CAKI-1,10.4%
same,zone of inhibition at 200 µg/disc,Staphylococcus aureus [7],8 mm
same,inhibition of growth at 10 µM,[8],11.8%
same,inhibition of growth at 10 µM,[9],11.6%
same,IC50,Dihydrofolate reductase,8 µM
same,inhibition of growth at 10 µM,[10],15.6%
Nc1nnc(Sc2nc3ccc(Cl)cc3c(=O)n2-c2ccc(Cl)cc2)s1,inhibition of growth at 10 µM,MDA-MB-435,10.8%
same,inhibition of growth at 10 µM,HOP-62,16.7%
same,inhibition of growth at 10 µM,[2],24.6%
same,inhibition of growth at 10 µM,786-0,15.4%
same,zone of inhibition at 200 µg/disc,Escherichia coli [3],16 mm
same,Activity,Staphylococcus aureus [11],Active
same,inhibition of growth at 10 µM,[12],12.7%
same,inhibition of growth at 10 µM,[13],12.3%
same,inhibition of growth at 10 µM,SK-MEL-5,10.9%
same,Activity,Bacillus subtilis [14],Active
same,inhibition of growth at 10 µM,[15],20.6%
same,inhibition of growth at 10 µM,MCF7,12.7%
same,zone of inhibition at 200 µg/disc,Bacillus subtilis [5],20 mm
same,inhibition of growth at 10 µM,[6],53.7%
same,Activity,Escherichia coli [16],Active
same,inhibition of growth at 10 µM,A498,30.6%
same,zone of inhibition at 200 µg/disc,Pseudomonas aeruginosa,12 mm
same,inhibition of growth at 10 µM,[17],13.3%
same,inhibition of growth at 10 µM,T47D,29.2%
same,inhibition of growth at 10 µM,A549,11.1%
same,zone of inhibition at 200 µg/disc,Candida albicans,8 mm
same,zone of inhibition at 200 µg/disc,Staphylococcus aureus [7],18 mm
same,inhibition of growth at 10 µM,[18],12.1%
same,inhibition of growth at 10 µM,U-251,11%
same,inhibition of growth at 10 µM,[8],14.1%
same,IC50,Dihydrofolate reductase,1 µM
